Assay results as given in US20100285145A1, “GPR 119 MODULATORS” (PFIZER INC, priority 2009, published 2010).
“And” between values parts separate entries of the source, which are not always exact repeats. Equal values may be shown once.

Key:
[1] = biological target: T1, human GPR119 (Homo sapiens, UniProt Q8TDV5); test: β-Lactamase reporter functional assay (hGPR119 HEK293-CRE beta-lactamase cells); assay type: cell-based; design: host or cells: HEK293-CRE beta-lactamase; Emax: dose or concentration left out as unconfirmed; conditions: for EC50: hGPR119 HEK293-CRE beta-lactamase cells, 16 h incubation, each line a separate determination, read-out: Human B-lactamase Functional EC50; for Intrinsic Activity (Human B-lactamase) / Emax: percent of maximal activity relative to standard GPR119 agonist at 10 micromolar; for Emax: read-out: Intrinsic Activity (Human B-lactamase)
T1 sequence (Q8TDV5 1-335): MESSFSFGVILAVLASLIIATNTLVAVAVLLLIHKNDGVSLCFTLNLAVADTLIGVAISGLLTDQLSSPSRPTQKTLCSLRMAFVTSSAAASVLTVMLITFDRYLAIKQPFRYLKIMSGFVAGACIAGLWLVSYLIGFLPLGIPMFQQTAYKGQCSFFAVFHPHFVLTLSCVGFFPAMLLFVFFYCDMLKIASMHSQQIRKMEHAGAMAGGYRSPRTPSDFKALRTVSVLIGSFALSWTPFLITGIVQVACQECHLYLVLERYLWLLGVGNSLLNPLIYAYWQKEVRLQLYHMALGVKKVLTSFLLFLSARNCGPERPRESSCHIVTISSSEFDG
Procedure: The assay for GPR119 agonists utilizes a cell-based (hGPR119 HEK293-CRE beta-lactamase) reporter construct where agonist activation of human GPR119 is coupled to beta-lactamase production via a cyclic AMP response element (CRE). GPR119 activity is then measured utilizing a FRET-enabled beta-lactamase substrate, CCF4-AM (Live Blazer FRET-B/G Loading kit, Invitrogen cat #K1027). Specifically, hGPR119-HEK-CRE-beta-lactamase cells (Invitrogen 2.5×10^7/mL) were removed from liquid nitrogen storage, and diluted in plating medium (Dulbecco's modified Eagle medium high glucose (DMEM; Gibco Cat # 11995-065), 10% heat inactivated fetal bovine serum (HIFBS; Sigma Cat # F4135), 1×MEM Nonessential amino acids (Gibco Cat # 15630-080), 25 mM HEPES pH 7.0 (Gibco Cat # 15630-080), 200 nM potassium clavulanate (Sigma Cat # P3494). The cell concentration was adjusted using cell plating medium and 50 microL of this cell suspension ([…]) was added into each well of a black, clear bottom, poly-d-lysine coated 384-well plate (Greiner Bio-One cat# 781946) and incubated at 37 degrees Celsius in a humidified environment containing 5% carbon dioxide. After 4 hours the plating medium was removed and replaced with 40 microL of assay medium (Assay medium is plating medium without potassium clavulanate and HIFBS). Varying concentrations of each compound to be tested was then added in a volume of 10 microL (final DMSO ≦0.5%) and the cells were incubated for 16 hours at 37 degrees Celsius in a humidified environment containing 5% carbon dioxide. Plates were removed from the incubator and allowed to equilibrate to room temperature for approximately 15 minutes. 10 microL of 6×CCF4/AM working dye solution (prepared according to instructions in the Live Blazer FRET-B/G Loading kit, Invitrogen cat #K1027) was added per well and incubated at room temperature for 2 hours in the dark. Fluorescence was measured on an EnVision fluorimetric plate reader, excitation 405 nm, emission 460 nm/535 nm. EC50 determinations were made from agonist-response curves analyzed with a curve fitting program using a 4-parameter logistic dose-response equation.

[2] = test system: male Wistar rats; test: Intraperitoneal glucose tolerance test (IPGTT); assay type: in vivo; conditions: rat
Description: All in vivo protocols were approved by the Pfizer's Animal Welfare Committee. Naive male Wistar rats (225-250 g body weight on receipt) were obtained from Harlan Laboratories (Indianapolis, Ind.), were pair housed in hanging plastic caging on Sani-chips sawdust bedding, and fed ad libitum on Purina 5001 chow. The rats were housed under a controlled light cycle (light from 6 am to 6 pm) at controlled temperature and humidity conditions. Rats were acclimated to the facility for at least 1 week prior to study.
Rats were assigned (n=8/group) to vehicle or one of three dose groups ([…]) according to body weight on day −0.1 to ensure that each group had equal group mean body weight values. The rats were fasted overnight in clean cages overnight (˜15 hours) prior to the intra-peritoneal glucose tolerance test. Body weights were recorded on the morning of the study (post fasting) for dose volume calculation. Blood samples were collected from all rats prior to dosing with vehicle (0.5% methylcellulose) or test compound via oral gavage (5 mL/kg). Sixty minutes later rats were bled and immediately dose with an IP dose of glucose (2 g/kg). The rats were re-bled at 15, 30, 60 and 120 minutes post-glucose load. Blood samples (˜250 μL/time point) were collected into EDTA tubes with aprotinin/DPPIVi (0.6 TIU/20 μL per mL whole blood), for the determination of plasma glucose, insulin, and total amide GLP-1 concentrations. Blood tubes were inverted several times immediately following collection and placed on ice, then spun at 14,000 rpm in a refrigerated centrifuge for 5 minutes. Plasma samples were analyzed for glucose levels using a Roche 912 clinical chemistry analyzer and plasma insulin concentrations were determined using the Alpco Ultra-Sensitive Insulin Rat Elisa.
The results are presented as mean+/−SEM (standard error of the mean) unless otherwise stated. Statistical evaluation of the data is carried out using one-way analysis of variance (ANOVA) with appropriate post-hoc analysis between vehicle and treatment group. Differences compared to vehicle with a P<0.05 were considered statistically significant using Dunnett's T-test.
IPGTT studies were performed with Example 3, either prepared as described above (dosed as a suspension in 0.5% methylcellulose) or prepared as an amorphous dispersion (25% active) with hydroxyproylmethylcellulose-acetate succinate (dosed as a suspension in 0.5% methylcellulose/0.1% polysorbate 80). […] Statistical significance is based on a comparison to the vehicle group.

[3] = 20 mg/kg SDD (amorphous dispersion 25% active with HPMC-acetate succinate)

EC50 [1] | Intrinsic Activity (Human B-lactamase) [1] | Emax [1] | SMILES | other results
46.7 nM and 37.2 nM | 85.8% | 90% | CC(C)OC(=O)N1CCC(Oc2cc(N3CCc4cc(C#N)ccc43)ncn2)CC1 [Example 10, Isopropyl 4-{[6-(5-cyano-2,3-dihydro-1H-indol-1-yl)pyrimidin-4-yl]oxy}piperidine-1-carboxylate] | –
236 nM and 203 nM | 97.8% | 92.6% | Cc1c(OC2CCN(C(=O)OC(C)C)CC2)ncnc1N1CCc2ncccc21 [Example 13, Isopropyl 4-{[6-(2,3-dihydro-1H-pyrrolo[3,2-b]pyridin-1-yl)-5-methylpyrimidin-4-yl]oxy}-piperidine-1-carboxylate] | –
37.3 nM and 32.8 nM | 101% | 100% | CC(C)OC(=O)N1CCC(Oc2cc(N3CCc4cc(C(=O)N(C)C)ccc43)ncn2)CC1 [Example 9, 4-[6-(5-Dimethylcarbamoyl-2,3-dihydroindol-1-yl)-pyrimidin-4-yloxy]-piperidine-1-carboxylic acid isopropyl ester] | –
– | – | 97.9% | Cc1c(O[C@@H]2[C@@H]3COC[C@H]2CN(C(=O)OC(C)C)C3)ncnc1N1CCc2cc(S(C)(=O)=O)ccc21 [Example 23, Isopropyl (9-syn)-9-({5-methyl-6-[5-(methylsulfonyl)-2,3-dihydro-1H-indol-1-yl]pyrimidin-4-yl}oxy)-3-oxa-7-azabicyclo[3.3.1]nonane-7-carboxylate] | –
12.6 nM and 29.7 nM and 13.8 nM and 12.3 nM | 102% and 81.8% and 93.4% and 107% | – | CC(C)OC(=O)N1CCC(Oc2cc(N3CCc4cc(S(C)(=O)=O)ccc43)ncn2)CC1 [Example 3, Isopropyl 4-({6-[5-(methylsulfonyl)-2,3-dihydro-1H-indol-1-yl]pyrimidin-4-yl}oxy)piperidine-1-carboxylate] | Glucose 0-120 min AUC (percent vehicle response) [2, 3]: ++89 percent vehicle response; Insulin AUC (0-60 min) (percent vehicle response) [2, 3]: 118 percent vehicle response; Glucose 0-120 min AUC (percent vehicle response) ([2]; 20 mg/kg in 0.5% methylcellulose, IP glucose administered 30 minutes post dose): ++85 percent vehicle response
2100 nM and 2160 nM | 121% | 110% | CC(C)OC(=O)N1CCC(Oc2cc(N3CCc4ncccc43)ncn2)CC1 [Example 12, Isopropyl 4-{[6-(2,3-dihydro-1H-pyrrolo[3,2-b]pyridin-1-yl)pyrimidin-4-yl]oxy}piperidine-1-carboxylate] | –
40.7 nM | – | 103% | CC(C)OC(=O)N1CCC(Oc2cc(N3CCc4cc(S(=O)(=O)CCO)ccc43)ncn2)CC1 [Example 11, Isopropyl 4-[(6-{5-[(2-hydroxyethyl)sulfonyl]-2,3-dihydro-1H-indol-1-yl}pyrimidin-4-yl)oxy]piperidine-1-carboxylate] | –
– | – | – | Cc1c(O[C@H]2CCN(C(=O)OC3(C)CC3)C[C@H]2F)ncnc1N1CCc2ncccc21 [Example 17, 1-Methylcyclopropyl (3R,4S)-4-{[6-(2,3-dihydro-1H-pyrrolo[3,2-b]pyridin-1-yl)-5-methylpyrimidin-4-yl]oxy}-3-fluoropiperidine-1-carboxylate] | Insulin 0-60 min AUC (percent vehicle response) ([2]; 1 mg/kg oral): 126 percent vehicle response; Total Amide GLP-1 0-120 min AUC (percent vehicle response) ([2]; 1 mg/kg oral): 235 percent vehicle response; Glucose 0-120 min AUC (percent vehicle response) ([2]; 1 mg/kg oral, 60 min before IP glucose 2 g/kg): 88 percent vehicle response; Insulin 0-60 min AUC (percent vehicle response) ([2]; 10 mg/kg oral): ++162 percent vehicle response; Total Amide GLP-1 0-120 min AUC (percent vehicle response) ([2]; 10 mg/kg oral): 237 percent vehicle response; Glucose 0-120 min AUC (percent vehicle response) ([2]; 10 mg/kg oral, 60 min before IP glucose 2 g/kg): ++69 percent vehicle response
75.9 nM and 72.3 nM | 109% | 107% | CC(C)OC(=O)N1C[C@H]2COC[C@@H](C1)[C@H]2Oc1cc(N2CCc3cc(S(C)(=O)=O)ccc32)ncn1 [Example 1, Isopropyl 9-anti-({6-[5-(methylsulfonyl)-2,3-dihydro-1H-indol-1-yl]pyrimidin-4-yl}oxy)-3-oxa-7-azabicyclo[3.3.1]nonane-7-carboxylate] | –
7.2 nM and 4.09 nM and 2.82 nM | 113% and 112% | 107% | CC(C)(C)OC(=O)N1CCC(Oc2cc(N3CCc4cc(S(C)(=O)=O)ccc43)ncn2)C(F)C1 (racemic) [Example 15, tert-Butyl 3-fluoro-4-({6-[5-(methylsulfonyl)-2,3-dihydro-1H-indol-1-yl]pyrimidin-4-yl}oxy)piperidine-1-carboxylate] | –
43.5 nM and 57.4 nM | 99.2% | 100% | Cc1c(OC2CCN(C(=O)OC(C)C)CC2)ncnc1N1CCc2cc(S(C)(=O)=O)ccc21 [Example 8, Isopropyl 4-({5-methyl-6-[5-(methylsulfonyl)-2,3-dihydro-1H-indol-1-yl]pyrimidin-4-yl}oxy)piperidine-1-carboxylate] | –
7.8 nM and 6.45 nM | 103% | 99.9% | CC(C)OC(=O)N1CCC(Oc2ncnc(N3CCc4cc(S(C)(=O)=O)ccc43)c2C#N)CC1 [Example 6, Isopropyl 4-({5-cyano-6-[5-(methylsulfonyl)-2,3-dihydro-1H-indol-1-yl]pyrimidin-4-yl}oxy)piperidine-1-carboxylate] | –
